Measured values as given in patent publication US6579882B2, “Cell adhesion-inhibiting antiinflammatory compounds” (Abbott Laboratories, priority 1998, dated 2003).

How the values were obtained:
[1] = system: E-Selectin; test: CAM ELISA: E-selectin expression on TNF-stimulated HUVECs; assay type: cell-based; conditions: 1 μM compound, primary human umbilical vein endothelial cells, compound 24 hours, then TNF 5 ng/mL 6 hours; for inhibition at 1 µM: Homo sapiens, Endothelial cell
Description: (§1) Pooled primary human umbilical vein endothelial cells (HtVEC's) (Clonetics) between passages 3 and 7 were plated in 96-well plates (Costar), 100 μL/well, 5×10^4 cells/mL in Clonetics EBM/2% FBS/EGF/Bovine brain extract/gentamicin in the absence of hydrocortisone. The following day, compounds of the invention were added in 10 μL/well medium, and the plates were incubated at 37° C. 24 hours after compound addition, TNF (Gibco/BRL) in 10 μL/well medium was added to a final concentration of 5 ng/mL, and the cells were incubated an additional 6 hours at 37° C. Then media was removed, and the plates were washed once with D-PBS (Gibco/BRL) and treated with primary antibodies (Becton Dickinson, City), 100 μL/well in D-PBS/2% BSA (Sigma)/0.01% azide. Primary antibodies at an initial concentration of 1 mg/mL were used at the following dilutions: anti-ELAM-1, 1:2000, anti-ICAM-1, 1:2000 and anti-VACM-1, 1:3000. Plates were stored overnight at 4° C., washed 3 times with D-PBS, and treated with secondary antibody (Jackson Labs), 100 μL/well 1:8000 dilution HRP-conjugated donkey anti-mouse IgG(H+L) in D-PBS/2%BSA. Plates were incubated a minimum of 1 hour at room temperature, washed 3 times with D-PBS and treated with 100 μL of orhto-phenylene diamine-2 HCl reagent per well. Plates were developed approximately 15 minutes and neutralized with 100 μL/well 1N sulfuric acid. Absorbance was read at 490 nm.

[2] = system: VCAM-1; test: CAM ELISA: VCAM-1 expression on TNF-stimulated HUVECs; assay type: cell-based; conditions: 1 μM compound, primary human umbilical vein endothelial cells, compound 24 hours, then TNF 5 ng/mL 6 hours; for inhibition at 1 µM: Homo sapiens, Endothelial cell
Description: as §1

[3] = system: ICAM-1; test: CAM ELISA: ICAM-1 expression on TNF-stimulated HUVECs; assay type: cell-based; conditions: 1 μM compound, primary human umbilical vein endothelial cells, compound 24 hours, then TNF 5 ng/mL 6 hours; for inhibition at 1 µM: Homo sapiens, Endothelial cell
Description: as §1

Row | Structure (SMILES) | inhibition at 1 µM [1] [%] | melting point | inhibition at 1 µM [2] [%] | inhibition at 1 µM [3] [%] | CAM ELISA % Inhibition at 1 μM E-Selectin [1] [%] | CAM ELISA % Inhibition at 1 μM VCAM-1 [2] [%] | CAM ELISA % Inhibition at 1 μM ICAM-1 [3] [%]
1 | NNC(=O)c1cc2c(Oc3ccc(C(F)(F)F)cc3)cncc2s1 [Example 158, 4-[4-(Trifluoromethyl)phenoxy]thieno[2,3-c]pyridine-2-carbohydrazide] | 61 | 146 to 147 °C | 26 | 65 | – | – | –
2 | NC(=O)/C=C/c1cc2c(Oc3ccc(Br)cc3)cncc2s1 [Example 259, (E)-3-[4-(4-Bromophenoxy)thieno[2,3-c]pyridin-2-yl]propenamide] | 63 | 195 to 196 °C | 57 | 59 | – | – | –
3 | O=C(NCCO)c1cc2c(Oc3ccc(Cl)cc3)cnc(Cl)c2s1 [Example 313, 7-Chloro-4-(4-chlorophenoxy)-N-(2-hydroxyethyl)thieno[2,3-c]pyridine-2-carboxamide] | 57 | 129 to 132 °C | 39 | 68 | – | – | –
4 | CCOCCOCCOCC1(c2ccc(Oc3cncc4sc(-c5nnc(N)o5)cc34)cc2)CC1 [Example 228, 5-{4-[4-(1-{[2-(2-Ethoxyethoxy)ethoxy]methyl}cyclopropyl)phenoxy]thieno[2,3-c]pyridin-2-yl}-1,3,4-oxadiazol-2-amine] | 70 | 113 to 114 °C | 54 | 68 | 67 | 52 | 64
5 | NC(=NO)c1cc2c(Oc3ccc(Cl)cc3)cncc2s1 [Example 249, 4-(4-Chlorophenoxy)-N′-hydroxythieno[2,3-c]pyridine-2-carboximidamide] | 75 | 194 to 196 °C | 61 | 69 | – | – | –
6 | Nc1csc(-c2cc3c(Oc4ccc(Cl)cc4)cncc3s2)n1 [Example 295, 2-[4-(4-Chlorophenoxy)thieno[2,3-c]pyridin-2-yl]-1,3-thiazol-4-amine] | 59 | 168 to 170 °C (dec.) | 44 | 56 | – | – | –
7 | Nc1ccc(-c2cc3c(Oc4ccc(Cl)cc4)cncc3s2)cn1 [Example 274, 5-[4-(4-Chlorophenoxy)thieno[2,3-c]pyridin-2-yl]-2-pyridinamine] | 65 | 208 to 210 °C | 44 | 71 | – | – | –
8 | Cc1ccc(Sc2ncnc3c(C)c(C(N)=O)sc23)cc1 [Example 16, 7-methyl-4-[(4-methylphenyl)thio]thieno[3,2-d]pyrimidine-6-carboxamide] | 35 | 243 to 246 °C | 19 | 32 | – | – | –
9 | Cc1nc(-c2cc3c(Oc4ccc(Cl)cc4)cncc3s2)no1 [Example 279, 4-(4-Chlorophenoxy)-2-(5-methyl-1,2,4-oxadiazol-3-yl)thieno[2,3-c]pyridine] | 30 | 120 to 121 °C | 24 | 40 | – | – | –
10 | Cn1c(N)nnc1-c1cc2c(Oc3ccc(Cl)cc3)cncc2s1 [Example 283, 5-[4-(4-Chlorophenoxy)thieno[2,3-c]pyridin-2-yl]-4-methyl-4H-1,2,4-triazol-3-amine] | 39 | 233 to 235 °C | 52 | 57 | – | – | –
11 | NC(=O)c1cc2c(SCc3ccc(Cl)cc3)cncc2s1 [Example 54, 4-[[(4-chlorophenyl)methyl]thio]thieno[2,3-c]pyridine-2-carboxamide] | 74 | 198 to 199 °C | 33 | 59 | – | – | –
12 | Nc1noc(-c2cc3c(Oc4ccc(Cl)cc4)cncc3s2)n1 [Example 285, 5-[4-(4-Chlorophenoxy)thieno[2,3-c]pyridin-2-yl]-1,2,4-oxadiazol-3-amine] | 56 | 217 to 219 °C | 50 | 65 | – | – | –
13 | FC(F)(F)c1nc(-c2cc3c(Oc4ccc(Cl)cc4)cncc3s2)no1 [Example 284, 4-(4-Chlorophenoxy)-2-[5-(trifluoromethyl)-1,2,4-oxadiazol-3-yl]thieno[2,3-c]pyridine] | 56 | 52 to 54 °C | 45 | 68 | – | – | –
14 | OCc1cc2c(Oc3ccc(Cl)cc3)cncc2s1 [Example 90, 4-(4-chlorophenoxy)thieno[2,3-c]pyridine-2-methanol] | 47 | 90 to 91 °C | 27 | 51 | – | – | –
15 | CNc1nnc(-c2cc3c(Oc4ccc(Cl)cc4)cncc3s2)s1 [Example 286, 5-[4-(4-Chlorophenoxy)thieno[2,3-c]pyridin-2-yl]-N-methyl-1,3,4-thiadiazol-2-amine] | 54 | 226 to 229 °C | 46 | 64 | – | – | –
16 | NC(=O)c1cc2c(Sc3ccccn3)cncc2s1 [Example 20, 4-(2-pyridinylthio)thieno[2,3-c]pyridine-2-carboxamide] | 55 | 239 to 242 °C | 26 | 46 | – | – | –
